Here are results for five compounds from PMC11555678, “Improved Broad Spectrum Antifungal Drug Synergies with Cryptomycin, a Cdc50-Inspired Antifungal Peptide” (ACS Infectious Diseases, 2024).

In test [1] the test system is C. neoformans H99. As to the kind of experiment: microbe, parasite or virus in culture. The format is cell-based, Cryptococcus neoformans. A digest of the protocol:
(§1)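 Testing follows the CLSI M27 protocol for yeasts: test compounds are diluted 2-fold serially in RPMI1640, and washed overnight cells are added at 5000 cfu/mL before 2 days' incubation at 37 °C.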

In test [2] the test system is C. neoformans apt2Δ. As to the kind of experiment: microbe, parasite or virus in culture. As to conditions: 48 h. The format is cell-based, Cryptococcus neoformans. A digest of the protocol: as §1
Test [3] concerns C. neoformans crm1Δ. The experiment in a line: microbe, parasite or virus in culture. The format is cell-based, Cryptococcus neoformans. As to conditions: 48 h. The gist of the method: as §1
For test [4], the system named is C. neoformans MRL862. As to the kind of experiment: microbe, parasite or virus in culture. The format is cell-based, Cryptococcus neoformans. A digest of the protocol: as §1
In test [5] the test system is C. albicans SC5413. As to the kind of experiment: microbe, parasite or virus in culture. The test is classed as cell-based, Candida albicans. On the procedure:
All microdilution assays with fungi were carried out in accordance with CLSI protocols from M27 for yeasts and M38 for filamentous fungi, respectively, unless otherwise specified.[64],[65] Briefly, 96-well plates were charged with RPMI1640 media, with operating volume in the first column, 200 μL, and half operating volume, 100 μL, in the remaining wells. Drug stock solution in DMSO was aliquoted into the first well in each row. Half of the volume in the dosed well was serially diluted 2-fold until column 11. Column 11 was used as the negative growth control, and column 12 was used as the positive growth control. ON yeast cultures in YPD were washed twice in DD-H2O, resuspended in PBS, and adjusted to 5000 cfu/mL in RPMI. The 96-well plate was inoculated with 100 μL aliquots of cell suspension per well. Plates were incubated at 37 °C for 2 days.

The subject of test [6] is Cn cdc50Δ. As to the kind of experiment: Intracellular ROS detection (H2DCFDA, flow cytometry). The format is cell-based, Cryptococcus neoformans. As to conditions: 30 min exposure in YPD. On the procedure: (§2) Protocol was carried out in accordance with previously reported methodologies.[35] Yeast cells were grown ON in liquid YPD, washed once in H2O, and resuspended in fresh YPD. The OD600 was adjusted to 0.2 in YPD. Cells were incubated for 3 h at 30 °C, 225 rpm, and then stained with 10 μM H2DCFDA for 2 h at 30 °C, 225 rpm, in the dark. Stained cells were washed twice with DD-H2O and resuspended in the minimal amount of YPD or calcium-enriched YPD needed to inoculate each technical replicate with cells. Each condition was prepared with four technical replicates. In the dark, the stained cells were titrated with KKOO-NH2 from 0.25 to 1× MIC and incubated for 30 min at 30 °C, 225 rpm, in 1 mL of YPD in 12 mL of vented culture tubes. After treatment, cells were transferred to 1.5 mL Eppendorf and centrifuged for 5 min at 2000 rpm. The cells were washed once with 0.5 mL of PBS and resuspended in 0.2 mL of PBS, and stored on ice for live-cell flow analysis, BD FACS Via (Franklyn Lakes, NJ). 100,000 events were recorded, and singlets were gated from SSC-A × FSC-A plot. Mean fluorescence signal intensity from the probe was plotted as a function of peptide concentration. Cells that remained after FACS were pooled based on their condition and imaged under the fluorescence microscope, Zeiss Axioscope 5.

In test [7] the test system is Cn H99. The description is as above. To be noted: 30 min exposure in YPD. The format is cell-based, Cryptococcus neoformans. The procedure:
as §2

The subject of test [8] is C. neoformans H99. The test is classed as cell-based, Cryptococcus neoformans. To be noted: 2× MIC, by 2 h, no rebound by 8 h; RPMI1640, 30 °C, 225 rpm, 2 million cfu/mL. On the procedure:
Culture tubes were prepared with aliquots of 2.0 mL of RPMI1640 (containing Q, MOPS, pH = 7, no phenol red). The tubes were sealed to prevent evaporation and were equilibrated with the incubation chamber overnight, at 30 °C. On the day of the experiment, overnight yeast cultures in YPD were washed twice with DD-H2O and resuspended in DD-H2O. The OD600 of the cell suspension was adjusted to 4.6, ≈2 × 10^6 cfu/mL, in DD-H2O. A 200 μL aliquot of adjusted cell suspension was added systematically to each tube, followed by 200 μL sampling for the 0 h time point. Immediately after sampling, the antifungal compounds were added, and the tubes were placed in the incubator at 30 °C with shaking at 225 rpm. The sampled aliquot was transferred to a 96-well plate and serially diluted six times, 10-fold each time. The resulting cell suspensions were spotted onto YPD plates in a grid pattern of 5 μL per spot. Subsequently, tubes were briefly removed from the incubator, and 100 μL aliquots were sampled at 2, 4, 6, and 8 h time points. Cells were counted on the YPD plates at either 24 or 48 h after plate spotting, depending on when the colonies were countable. Images of the YPD plates were recorded on the Bio-Rad Gel imager after 48 h of incubation at 30 °C. […] 2 C = number of colonies counted, Df = dilution factor = 10^n–1, n = column that the cells were counted, and Vf = volume factor = 1/0.005 mL.

Test [9] concerns C. neoformans H99 and cdc50Δ. The experiment in a line: Intracellular calcium measurement (Fluo-3AM, flow cytometry). The format is cell-based, Cryptococcus neoformans. To be noted: YPD, remained elevated for the 60 min time course. On the procedure:
Intracellular calcium measurement was carried out in accordance with previously reported methodologies.[35] Yeast cells were sub cultured ON in YPD, and the next day cells were washed twice in D-Hanks (0.4 g/Liter KCl, 0.06 g/Liter KH2PO4, 8.0 g/Liter NaCl, 0.35 g/Liter NaHCO3, 0.06 g/Liter Na2HPO4·7H2O) and adjusted to 1 × 10^7 cfu/mL in 5 mL D-Hanks. Fluo-3-AM stock solution in DMSO was diluted 1000-fold to operating stain concentration of 10 μM. Cells were stained in the dark for 30 min at 37 °C, 225 rpm, in a 12 mL culture tube. Stained cells were washed three times in D-Hanks and resuspended into a minimal amount of YPD or calcium-enriched YPD required to inoculate each condition. Each condition was prepared with three technical replicates. After inoculating 1 mL YPD with 0.2 mL cell suspension, 0.2 mL was aliquoted into a flow tube for the 0 min time point. The flow tube was placed on ice until flow analysis. […] To allow for sample processing for each time point, each set of replicates was inoculated and treated about 2 min apart. Subsequent 0.2 mL aliquots were drawn at 12, 24, 36, and 60 min for flow analysis. Live cells were analyzed using BD FACS via 100,000 events were collected, and singlets were gated for each sample. The mean fluorescence of the singlets was recorded and plotted as a function of […].

The mark [10] stands for this setting: Cryptococcus neoformans, H99, compound alone, RPMI1640, 37 °C, 48 h, read-out: MIC.
[11] abbreviates: Candida albicans, SC5413, compound alone, RPMI1640, 37 °C, 48 h, read-out: MIC.
Setting [12] is: Cryptococcus neoformans, MRL862, compound alone, RPMI1640, 37 °C, 48 h, read-out: MIC.
The mark [13] stands for this setting: Table S1, unit and conditions not given (MICs elsewhere in μg/mL).
The mark [14] stands for this setting: compound alone, RPMI1640, 37 °C.

The structures appear in SMILES notation. Converted amounts (≈) assume the structure as drawn. Where two headings read alike, the source gives them in different places. Square brackets hold non-standard residues; d marks the D form. Peptide text beside a SMILES is read from it. * marks the point of attachment. Myristoyl = CCCCCCCCCCCCCC(=O)*; Orn = NCCC[C@H](N)C(=O)O

In the case of `C[C@@H]1[C@H](O)[C@@H](C)/C=C/C=C/C=C/C=C/C=C/C=C/C=C/[C@H](O[C@@H]2O[C@H](C)[C@@H](O)[C@H](N)[C@@H]2O)C[C@@H]2O[C@](O)(C[C@@H](O)C[C@@H](O)[C@H](O)CC[C@@H](O)C[C@@H](O)CC(=O)O[C@H]1C)C[C@H](O)[C@H]2C(=O)O` [AMB, amphotericin B], the MIC in [1] (setting [10]) was found to be 0.5 µg/mL (≈ 0.541 µM); in test [2] (Cryptococcus neoformans), 0.25 µg/mL (≈ 0.271 µM); in test [3] (Cryptococcus neoformans), 0.5 µg/mL (≈ 0.541 µM); in test [4] (Cryptococcus neoformans, MRL862, 48 h) it was 0.125 µg/mL (≈ 0.135 µM); in test [5] (setting [11]), 1 µg/mL (≈ 1.08 µM).
On to `CCC(C)n1ncn(-c2ccc(N3CCN(c4ccc(OCC5COC(Cn6cncn6)(c6ccc(Cl)cc6Cl)O5)cc4)CC3)cc2)c1=O` (centres unmarked) [ITR, itraconazole], for which the MIC in [1] (Cryptococcus neoformans, H99, 48 h) was 0.125 µg/mL (≈ 0.177 µM); in test [2] (Cryptococcus neoformans), 0.125 µg/mL (≈ 0.177 µM); in [3] (Cryptococcus neoformans), 0.062 µg/mL (≈ 0.0879 µM); in [4] (setting [12]), 0.031 µg/mL (≈ 0.0439 µM); in test [5] (setting [11]) it was more than 1 µg/mL.
For the compound `OC(Cn1cncn1)(Cn1cncn1)c1ccc(F)cc1F` [FLC, fluconazole], the MIC is 2 µg/mL (≈ 6.53 µM) in test [1] (setting [10]); 2 µg/mL (≈ 6.53 µM) in test [2] (Cryptococcus neoformans); 2 µg/mL (≈ 6.53 µM) in [3] (Cryptococcus neoformans); 32 µg/mL (≈ 104 µM) in [4] (setting [12]); more than 16 µg/mL in [5] (setting [11]). In test [4] (RPMI1640, 37 °C, 48 h), the “MIC relative to wild-type strain H99 (higher)” value was found to be 16 fold.
Take `CCCCCCCCCCCCCC(=O)N[C@@H](Cc1c[nH]c2ccccc12)C(=O)NCC(=O)NCC(=O)N[C@H](C(=O)N[C@@H](CCCN)C(=O)N[C@@H](CCCN)C(=O)N[C@@H](CC(N)=O)C(=O)N[C@@H](Cc1ccc(O)cc1)C(=O)N[C@@H](C)C(N)=O)[C@@H](C)CC` [KKOO-NH2] (Myristoyl-WGGI[Orn][Orn]NYA-NH2): the MIC in test [1] (H99, 48 h) stood at 8 µg/mL (≈ 6.57 µM); in [2] (setting [14]), 4 µg/mL (≈ 3.29 µM); in test [3] (setting [14]), 4 µg/mL (≈ 3.29 µM); in test [4] (MRL862, 48 h) it was 8 µg/mL (≈ 6.57 µM); in [5] (SC5413, 48 h), 16 µg/mL (≈ 13.1 µM). Besides, the “MIC (SAR screen peptides)” value in test [1] (setting [13]) is 8; in [5] (setting [13]), 16. Also, the “lowest peptide concentration with elevated ROS production” value was found to be 1 µg/mL in test [6] and 4 µg/mL in [7]. In [8], this compound yielded a Cryptococcus cells killed of more than 99.9%. For the same compound, in test [9], the “time to difference in intracellular calcium signaling vs untreated cells” value is reported as not above 12 min.
Regarding `CC[C@H](C)C[C@H](C)CCCCCCCCC(=O)N[C@H]1C[C@@H](O)[C@@H](NCCN)NC(=O)[C@@H]2[C@@H](O)CCN2C(=O)[C@H]([C@H](O)CCN)NC(=O)[C@H]([C@H](O)[C@@H](O)c2ccc(O)cc2)NC(=O)[C@@H]2C[C@@H](O)CN2C(=O)[C@H]([C@@H](C)O)NC1=O` [CAS, caspofungin], the MIC worked out at 16 µg/mL (≈ 14.6 µM) in test [1] (setting [10]); 16 µg/mL (≈ 14.6 µM) in [2] (Cryptococcus neoformans); 16 µg/mL (≈ 14.6 µM) in test [3] (Cryptococcus neoformans); 16 µg/mL (≈ 14.6 µM) in test [4] (setting [12]); 0.25 µg/mL (≈ 0.229 µM) in test [5] (setting [11]).
